{"source": "patent US6545000B1", "about": "“[1,2,4]triazolo[1,5-c]pyrimidine derivatives” (Kyowa Hakko Kogyo Co., Ltd., priority 1998, dated 2003)", "key": {"[1]": {"tested_on": "reserpine-induced catalepsy", "assay": "Activity on reserpine-induced catalepsy", "format": "in vivo, mouse", "details": "oral; for Remission ratio (%): percentage reduction of total score vs control group; for Total score: total catalepsy score of 10 mice (maximum 50 points), reserpine 5 mg/kg s.c., 1 hour after administration", "experimental": "This test was carried out using 10 animals per group of male ddY mice of 5 week age (22 to 24 g in body weight, Japan SLC). […] Reserpine (5 mg/kg: apoplon, Daiichi Pharmaceutical Co., Ltd.; diluted with distilled water) was subcutaneously administered, and catalepsy-inducing activity was observed from 18 hours after the administration. […] Each test compound was suspended in distilled water for injection containing 0.5% MC (manufactured by Otsuka Pharmaceutical Co., Ltd.) The suspension containing each of the test compounds or a solution containing no test compound (distilled water for injection containing 0.5% MC (manufactured by Otsuka Pharmaceutical Co., Ltd.); control) was orally administered (0.1 mL per 10 g mouse body weight) and, one hour after the administration of test compound, only forelimbs or only hindlimbs of each animal were laid on a stand having a size of 4.5 cm in height and 1.0 cm in width, to measure catalepsy symptoms.\n(§1) The effect was judged by total catalepsy scores of 10 animals in one group (the maximum is 50 points). When the total score was 40 points or less, the activity of the test compound was judged positive. The number of animals showing remission of catalepsy was expressed by the number of cases in which the catalepsy score was 4 points or less in 10 cases. The catalepsy remission ratio was expressed as the percentage reduction of the total score in the test compound-administered group to the total score in the control group."}, "[2]": {"molecular_target": "T1, Rat A2A receptor (Rattus norvegicus, UniProt P30543)", "T1 construct": "from tissue; host or cells: rat corpus striatum membrane preparation", "T1 sequence (P30543 whole entry)": "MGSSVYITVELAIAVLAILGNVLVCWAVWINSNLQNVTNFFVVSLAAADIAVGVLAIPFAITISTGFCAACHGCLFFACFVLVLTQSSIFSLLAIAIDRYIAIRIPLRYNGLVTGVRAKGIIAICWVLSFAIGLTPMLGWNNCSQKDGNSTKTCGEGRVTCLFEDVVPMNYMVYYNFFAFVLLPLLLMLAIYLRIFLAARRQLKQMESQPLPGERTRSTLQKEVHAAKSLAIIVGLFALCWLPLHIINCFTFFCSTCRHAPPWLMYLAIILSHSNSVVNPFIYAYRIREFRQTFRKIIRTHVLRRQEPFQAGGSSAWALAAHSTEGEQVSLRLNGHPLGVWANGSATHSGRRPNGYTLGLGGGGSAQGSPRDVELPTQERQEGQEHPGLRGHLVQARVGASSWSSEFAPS", "assay": "Adenosine A2A receptor binding test (3H-CGS 21680 binding)", "details": "rat corpus striatum", "experimental": "The final precipitate was suspended in 50 mmol/L Tris-HCl buffer (containing 10 mmol/L magnesium chloride and 0.02 unit/mg tissue of adenosine deaminase (manufactured by Sigma Co.)) by adding the buffer to the final precipitate so as to give a tissue concentration of 5 mg (wet weight)/mL.\nInhibition ratio (%)={1−(amount of the binding in the presence of the test compound−amount of the non-specific binding)/(amount of the total binding−amount of the non-specific binding)}×100"}, "[3]": {"tested_on": "CGS 21680-induced catalepsy", "assay": "Activity on CGS 21680-induced catalepsy", "format": "in vivo, mouse", "details": "10 mg/kg oral; for inhibition in vivo at 10 mg/kg: Mus musculus, 1 h, percentage reduction of total score vs control group, read-out: Remission ratio (%); for Total score: total catalepsy score of 10 mice (maximum 50 points), 1 hour after administration", "experimental": "This test was carried out using 10 animals per group of male ddY mice of 5 week age (22 to 25 g in body weight, Japan SLC). […] One hour after the administration of the test compound, only forelimbs or only hindlimbs of each animal were laid on a vertically arranged stand made of acryl, having a size of 4.5 cm in height and 1.0 cm in width, to measure catalepsy symptoms. All of the test compounds were administered orally in a dose of 10 mg/kg.\nas §1, with “(the maximum score is 50” for “(the maximum is 50”, “points). When total score” for “points). When the total score”, “of the compounds was judged” for “of the test compound was judged”"}, "[4]": {"tested_on": "MPTP-treated common marmoset", "assay": "Parkinson's disease model (common marmoset treated with MPTP)", "format": "in vivo", "details": "motor disability score (0-17 points), 4 animals", "description": "This test was carried out using 4 animals per group of female and male common marmosets of 2 to 3 year age (300 to 375 g in body weight, CLEA Japan). MPTP (manufactured by RBI) was dissolved in physiological saline for injection (manufactured by Otsuka Pharmaceutical Co., Ltd.) and administered to common marmoset once a day for 5 days by subcutaneous injection in a dose of 2.0 mg/kg. Six weeks or more after the administration, animals showing chronic symptoms of Parkinson's disease were used in the test. Each test compound was used by suspending it in 0.3% Tween 80 and 10% sucrose solution. One hour before the administration of the test compound, the animals to be tested were put into an observation cage (equipped with a spontaneous locomotor count measuring apparatus) to adapt them to the environment. Pre-motor disability before administration of the test compound was scored, and was compared with the motor disability score after administration of the test compound. Symptoms of Parkinson's disease were observed from a one way see through window at 30 minutes' interval for 8 hours to score their motor disability. The spontaneous locomotor count was measured at 30 minutes' interval for 12 hours by a computer-controlled automatic measuring apparatus. […]"}, "[5]": {"tested_on": "haloperidol-induced catalepsy", "assay": "Activity on haloperidol-induced catalepsy", "format": "in vivo, mouse", "details": "10 mg/kg oral; for Number of animals showing remission: catalepsy score 4 points or less, out of 10 mice; for Remission ratio (%): percentage reduction of total score vs control group; for Total score: total catalepsy score of 10 mice (maximum 50 points), haloperidol 1.0 mg/kg i.p.", "experimental": "Parkinson's disease is a disease based on the degeneration and cell death of the nigrostriatal dopaminergic neuron. When haloperidol (dopamine D2 antagonist) is administered, catalepsy is induced by the block of postsynaptic D2 receptor. This haloperidol-induced catalepsy is known as a classic model in which symptoms of Parkinson's disease are produced by drug administration (European Journal of Pharmacology, 182: 327 (1990) and U.S. Pat. No. 3,991,207).\nThis test was carried out using 10 animals per group of male ddY mice of 5 week age (22 to 24 g in body weight, Japan SLC). Haloperidol (manufactured by Janssen) was suspended in 0.5% MC and administered intraperitoneally into mice at a dose of 1.0 mg/kg. Each test compound was suspended in distilled water for injection containing 0.5% MC (manufactured by Otsuka Pharmaceutical Co., Ltd.) (10 mg/kg). Also, as a control drug, 100 mg/kg of L-DOPA and 25 mg/kg of benserazide were used as a solution by dissolving them into distilled water for injection containing 0.5% MC (manufactured by Otsuka Pharmaceutical Co., Ltd.) One hour after the intraperitoneal injection of haloperidol, the suspension containing each of the test compounds or the solution containing the control drug was orally administered (0.1 mL per 10 g mouse body weight) and, one hour after the administration of the test compound or the control drug, only forelimbs or only hindlimbs of each animal were laid on a stand having a size of 4.5 cm in height and 1.0 cm in width, to measure catalepsy symptoms. The catalepsy score was evaluated by the judging criteria shown in the above-described Table 3.\nas §1, with “(the maximum score is 50” for “(the maximum is 50”, “the test compounds was judged” for “the test compound was judged”"}, "[6]": {"tested_on": "ddY male mice", "assay": "Forced swimming method (measurement of immobility time)", "format": "in vivo, mouse", "details": "oral, one hour before the test; 4 minutes (240 seconds) measurement; 10 mice", "experimental": "Ten animals per group of ddY male mice (21 to 26 g in body weight, Japan SLC) were used as the test animal. During the preliminary feeding period, they were allowed to have feed and water freely in an animal room of a room temperature of 23±1° C. and a humidity of 55±5%. Animals showing abnormal reactions in terms of spontaneous activity, myotonia, eyesight or the like were excluded beforehand. The test compound was suspended in a 0.3% Tween 80 solution and orally administered one hour before the test. In the negative control group, 10 mL/kg of a 0.3% Tween 80 solution alone was orally administered. Measurement of immobility time was carried out in accordance with the method of Porsolt (Arch. int Pharmacodyn., 229: 327-336 (1977)). That is, a cylindrical transparent acrylic water tank (10 cm in diameter and 25 cm in height) was filled with 9 cm in depth of water having a temperature of 23±1° C., and mice were forced to swim for 6 minutes. When mice are put into water, they immediately start to swim trying to escape from the tank, but the motion gradually decreases 1 to 2 minutes thereafter. […] In order to reduce effects of daily rhythm, the test was carried out by using 5 of the 10 animals per group in the morning, and the remaining 5 animals in the afternoon. […]"}}}
{"compound": "CC(C)(O)CN1CCN(c2cc3nc(-c4ccco4)nn3c(N)n2)CC1", "note": "[Compound 1, 5-Amino-2-(2-furyl)-7-(4-(2-hydroxy-2-methylpropyl)piperazinyl)[1,2,4]triazolo[1,5-c]pyrimidine]", "values": [{"measurement": "Remission ratio (%)", "setting": "[1]", "value": 72, "unit": "%"}, {"measurement": "Total score", "setting": "[1]", "value": 14}, {"measurement": "Rat A2A receptor inhibition ratio (%)", "setting": "[2]; 10^−6 mol/L test compound", "value": 81, "unit": "%"}, {"measurement": "Rat A2A receptor inhibition ratio (%)", "setting": "[2]; 10^−7 mol/L test compound", "value": 42, "unit": "%"}, {"measurement": "inhibition in vivo at 10 mg/kg", "setting": "[3]", "value": 100, "unit": "%"}, {"measurement": "Total score", "setting": "[3]", "value": 0}, {"measurement": "Average score at maximum improvement after administration", "setting": "[4]; after administration", "value": "4.75 ± 0.48 (p < 0.0256)"}, {"measurement": "Average score before administration", "setting": "[4]; before administration of the test compound", "value": "12.75 ± 0.25"}, {"measurement": "Number of animals showing remission", "setting": "[5]", "value": 10}, {"measurement": "Remission ratio (%)", "setting": "[5]", "value": 100, "unit": "%"}, {"measurement": "Total score", "setting": "[5]", "value": 0}]}
{"compound": "Cc1cc(CN2CCN(c3cc4nc(-c5ccco5)nn4c(N)n3)CC2)no1", "note": "[Compound 21, 5-Amino-2-(2-furyl)-7-(4-(5-methylisoxazol-3-ylmethyl)piperazinyl)[1,2,4]triazolo[1,5-c]pyrimidine]", "values": [{"measurement": "Remission ratio (%)", "setting": "[1]", "value": 66, "unit": "%"}, {"measurement": "Total score", "setting": "[1]", "value": 17}, {"measurement": "Immobility time (second)", "setting": "[6]", "value": "7.6 ± 3.2 (p < 0.01) second"}, {"measurement": "Rat A2A receptor inhibition ratio (%)", "setting": "[2]; 10^−6 mol/L test compound", "value": 90, "unit": "%"}, {"measurement": "Rat A2A receptor inhibition ratio (%)", "setting": "[2]; 10^−7 mol/L test compound", "value": 65, "unit": "%"}, {"measurement": "inhibition in vivo at 10 mg/kg", "setting": "[3]", "value": 100, "unit": "%"}, {"measurement": "Total score", "setting": "[3]", "value": 0}, {"measurement": "Number of animals showing remission", "setting": "[5]", "value": 10}, {"measurement": "Remission ratio (%)", "setting": "[5]", "value": 100, "unit": "%"}, {"measurement": "Total score", "setting": "[5]", "value": 0}]}
